Measured values as given in patent US20220177508A1, “C10-Cyclic Substituted 13-Membered Macrolides and Uses Thereof” (Zikani Therapeutics, Inc., priority 2018, published 2022).
≈ marks a conversion by molar mass, not a printed value.

Columns and labels:
Format in all cases: cell-based
S. aureus MP-12 = test: Broth dilution MIC determination (CLSI), S. aureus MP-12; settings: Staphylococcus aureus, MP12; strain MP-12, broth dilution
E. coli MP-4 = test: Broth dilution MIC determination (CLSI), E. coli MP-4; settings: Escherichia coli, MP4; strain MP-4, broth dilution; read-out: MIC E. coli MP-4
K. pneumoniae MP-546 = test: Broth dilution MIC determination (CLSI), K. pneumoniae MP-546; settings: Klebsiella pneumoniae, MP546; strain MP-546, broth dilution
P. aeruginosa MP-3 = test: Broth dilution MIC determination (CLSI), P. aeruginosa MP-3; settings: Pseudomonas aeruginosa, MP3; strain MP-3, broth dilution
A. baumannii MP-15 = test: Broth dilution MIC determination (CLSI), A. baumannii MP-15; settings: Acinetobacter baumannii, MP15; strain MP-15, broth dilution; read-out: MIC A. baumanii MP-15

Compound | MIC (S. aureus MP-12) | MIC (E. coli MP-4) | MIC (K. pneumoniae MP-546) | MIC (P. aeruginosa MP-3) | MIC (A. baumannii MP-15)
CCCN1CC([C@H]2COC(=O)C(C)(C)C(=O)[C@H](C)[C@@H](O[C@@H]3O[C@H](C)C[C@H](N(C)C)[C@H]3O)[C@](C)(OC)C[C@@H](C)CN2C)C1 [Compound 29, (3S,6R,8R,9R,10R)-9-(((2S,3R,4S,6R)-4-(dimethylamino)-3-hydroxy-6-methyltetrahydro-2H-pyran-2-yl)oxy)-8-methoxy-4,6,8,10,12,12-hexamethyl-3-(1-propylazetidin-3-yl)-1-oxa-4-azacyclotridecane-11,13-dione] | > 32 µg/mL | < 4 µg/mL | 4 to 32 µg/mL (≈ 6.69 to 53.5 µM) | > 32 µg/mL | > 32 µg/mL
CO[C@]1(C)C[C@@H](C)CN(C)[C@@H]([C@H]2CCNC2)COC(=O)C(C)(C)C(=O)[C@H](C)[C@H]1O[C@@H]1O[C@H](C)C[C@H](N(C)C)[C@H]1O [Compound 40, (3S,6R,8R,9R,10R)-9-(((2S,3R,4S,6R)-4-(Dimethylamino)-3-hydroxy-6-methyltetrahydro-2H-pyran-2-yl)oxy)-8-methoxy-4,6,8,10,12,12-hexamethyl-3-((S)-pyrrolidin-3-yl)-1-oxa-4-azacyclotridecane-11,13-dione] | 4 to 32 µg/mL (≈ 7.02 to 56.2 µM) | < 4 µg/mL | < 4 µg/mL | > 32 µg/mL | > 32 µg/mL
CCCN1C[C@H](C)C[C@@](C)(OC)[C@H](O[C@@H]2O[C@H](C)C[C@H](N(C)C)[C@H]2O)[C@@H](C)C(=O)C(C)(C)C(=O)OC[C@H]1C1CN(CC(C)C)C1 [Compound 105, (3R,6R,8R,9R,10R)-9-(((2S,3R,4S,6R)-4-(dimethylamino)-3-hydroxy-6-methyltetrahydro-2H-pyran-2-yl)oxy)-3-(1-isobutylazetidin-3-yl)-8-methoxy-6,8,10,12,12-pentamethyl-4-propyl-1-oxa-4-azacyclotridecane-11,13-dione] | > 32 µg/mL | 4 to 32 µg/mL (≈ 6.25 to 50 µM) | > 32 µg/mL | > 32 µg/mL | > 32 µg/mL
CO[C@]1(C)C[C@@H](C)CN(C)[C@@H]([C@H]2CCN(C(C)C)C2)COC(=O)C(C)(C)C(=O)[C@H](C)[C@H]1O[C@@H]1O[C@H](C)C[C@H](N(C)C)[C@H]1O [Compound 57, (3S,6R,8R,9R,10R)-9-(((2S,3R,4S,6R)-4-(Dimethylamino)-3-hydroxy-6-methyltetrahydro-2H-pyran-2-yl)oxy)-3-((S)-1-isopropylpyrrolidin-3-yl)-8-methoxy-4,6,8,10,12,12-hexamethyl-1-oxa-4-azacyclotridecane-11,13-dione] | 4 to 32 µg/mL (≈ 6.54 to 52.3 µM) | < 4 µg/mL | 4 to 32 µg/mL (≈ 6.54 to 52.3 µM) | > 32 µg/mL | > 32 µg/mL

The next lines start with the values.

MIC (S. aureus MP-12) | MIC (E. coli MP-4) | MIC (K. pneumoniae MP-546) | MIC (P. aeruginosa MP-3) | MIC (A. baumannii MP-15) | Compound
> 32 µg/mL | > 32 µg/mL | > 32 µg/mL | > 32 µg/mL | > 32 µg/mL | CO[C@]1(C)C[C@@H](C)CN(C)[C@H](c2ccc(-c3cccnc3)cc2)COC(=O)C(C)(C)C(=O)[C@H](C)[C@@H]1O[C@@H]1O[C@@H](C)C[C@H](N(C)C)[C@H]1O [Compound 188]
> 32 µg/mL | > 32 µg/mL | > 32 µg/mL | > 32 µg/mL | > 32 µg/mL | CO[C@]1(C)C[C@@H](C)CN(C)[C@@H]([C@H]2CCCN(C(C)C)C2)COC(=O)C(C)(C)C(=O)[C@H](C)[C@H]1O[C@@H]1O[C@H](C)C[C@H](N(C)C)[C@H]1O [Compound 56, (3S,6R,8R,9R,10R)-9-(((2S,3R,4S,6R)-4-(dimethylamino)-3-hydroxy-6-methyltetrahydro-2H-pyran-2-yl)oxy)-3-((S)-1-isopropylpiperidin-3-yl)-8-methoxy-4,6,8,10,12,12-hexamethyl-1-oxa-4-azacyclotridecane-11,13-dione]
> 32 µg/mL | > 32 µg/mL | > 32 µg/mL | > 32 µg/mL | > 32 µg/mL | CO[C@]1(C)C[C@@H](C)CN(C)[C@H](C2CCCCC2)COC(=O)C(C)(C)C(=O)[C@H](C)[C@H]1O[C@@H]1O[C@H](C)C[C@H](N(C)C)[C@H]1O [Compound 88, (3R,6R,8R,9R,10R)-3-cyclohexyl-9-(((2S,3R,4S,6R)-4-(dimethylamino)-3-hydroxy-6-methyltetrahydro-2H-pyran-2-yl)oxy)-8-methoxy-4,6,8,10,12,12-hexamethyl-1-oxa-4-azacyclotridecane-11,13-dione]
